Results as given in US7897543B2, “Spiroketal-substituted cyclic ketoenols” (Bayer CropScience AG, priority 2005, dated 2011).
Marks after values point to notes of the source that are not given here.

system: Phaedon cochleariae; assay: Example N: Phaedon Test (spray treatment); type: in vivo; details: application rate 500 g/ha
Description: [table] To produce a suitable preparation of active compound, 1 part by weight of active compound is mixed with the stated amounts of solvents and emulsifier, and the concentrate is diluted with emulsifier-containing water to the desired concentration. Discs of Chinese cabbage (Brassica pekinensis) are sprayed with a preparation of active compound of the desired concentration and, after drying, populated with larvae of the mustard beetle (Phaedon cochleariae).

Row | Structure (SMILES) | activity in % [%]
1 | Cc1cc(C)c(C2=C(O)C3(CCC4(CC3)OC(C)C(C)O4)NC2=O)c(C)c1 (mixture of isomers) [Ex. I-1-a-10] | 100
2 | Cc1cc(Cl)cc(C)c1C1=C(O)C2(CCC3(CC2)OC(C)C(C)O3)NC1=O (mixture of isomers) [Ex. I-1-a-30] | 100
3 | Cc1cc(Cl)cc(C)c1C1=C(O)C2(CCC3(CC2)OCC(C)O3)NC1=O (mixture of isomers) [Ex. I-1-a-31] | 100
4 | Cc1cc(Br)cc(C)c1C1=C(O)C2(CCC3(CC2)OCC(C)CO3)NC1=O (mixture of isomers) [Ex. I-1-a-32] | 100
5 | Cc1cc(Cl)cc(C)c1C1=C(O)C2(CCC3(CC2)OCC(C)CO3)NC1=O (mixture of isomers) [Ex. I-1-a-34] | 100
6 | Cc1cc(Cl)cc(C)c1C1=C(O)C2(CCC3(CC2)OC(C)CC(C)O3)NC1=O (mixture of isomers) [Ex. I-1-a-38] | 100
7 | CCc1cc(Br)cc(C)c1C1=C(O)C2(CCC3(CC2)OC(C)C(C)O3)NC1=O (mixture of isomers) [Ex. I-1-a-45] | 100
8 | Cc1cc(Br)cc(C)c1C1=C(O)C2(CCC3(CC2)OC(C)C(C)O3)NC1=O (mixture of isomers) [Ex. I-1-a-46] | 100
9 | Cc1cc(Br)cc(C)c1C1=C(O)C2(CCC3(CC2)OCC(C)O3)NC1=O (mixture of isomers) [Ex. I-1-a-47] | 100
10 | Cc1ccc(-c2ccc(Cl)cc2)c(C)c1C1=C(O)C2(CCC3(CC2)OCC(C)O3)NC1=O (mixture of isomers) [Ex. I-1-a-51] | 100
11 | Cc1ccc(-c2ccc(Cl)cc2)cc1C1=C(O)C2(CCC3(CC2)OCC(C)O3)NC1=O (mixture of isomers) [Ex. I-1-a-52] | 100
12 | CCc1cc(Br)cc(C)c1C1=C(O)C2(CCC3(CC2)OCC(C)O3)NC1=O (mixture of isomers) [Ex. I-1-a-53] | 100
13 | Cc1ccc(-c2ccc(Cl)cc2)cc1C1=C(O)C2(CCC3(CC2)OC(C)C(C)O3)NC1=O (mixture of isomers) [Ex. I-1-a-54] | 100
14 | Cc1cc(Br)cc(C)c1C1=C(O)C2(CCC3(CC2)OC(C)CC(C)O3)NC1=O (mixture of isomers) [Ex. I-1-a-56] | 100
15 | CCc1cc(Br)cc(C)c1C1=C(O)C2(CCC3(CC2)OC(C)CC(C)O3)NC1=O (mixture of isomers) [Ex. I-1-a-63] | 100
16 | CC1COC2(CCC3(CC2)NC(=O)C(c2cc(-c4ccc(Cl)cc4)ccc2Cl)=C3O)OC1 (mixture of isomers) [Ex. I-1-a-65] | 100
17 | Cc1ccc(-c2ccc(Cl)cc2)cc1C1=C(O)C2(CCC3(CC2)OCCC(C)O3)NC1=O (mixture of isomers) [Ex. I-1-a-66] | 100
18 | COCC1COC2(CCCC3(C2)NC(=O)C(c2c(C)cc(C)cc2C)=C3O)O1 (mixture of isomers) [Ex. I-1-a-71] | 100

Row | Structure (SMILES) | activity in % [%]
19 | CCOC(=O)OC1=C(c2cc(C)ccc2C)C(=O)NC12CCC1(CC2)OCC(C)O1 (mixture of isomers) [Ex. I-1-c-19] | 100
20 | CCCC1COC2(CCC3(CC2)NC(=O)C(c2c(C)cc(C)cc2C)=C3O)O1 (single isomer, unassigned) [Ex. I-1-a-9] | 100
21 | CCCC1COC2(CCC3(CC2)NC(=O)C(c2c(C)cc(C)cc2C)=C3O)O1 (stereo not drawn) [Ex. I-1-a-8] | 100
22 | Cc1ccc(-c2ccc(Cl)cc2)cc1C1=C(O)C2(CCC3(CC2)OCCCO3)NC1=O [Ex. I-1-a-16] | 100
23 | Cc1cc(Cl)cc(C)c1C1=C(O)C2(CCC3(CC2)OCC(C)(C)CO3)NC1=O [Ex. I-1-a-20] | 100
24 | COc1cc(C)cc(C)c1C1=C(O)C2(CCC3(CC2)OCCCO3)NC1=O [Ex. I-1-a-24] | 100
25 | Cc1ccc(-c2ccc(Cl)cc2)cc1C1=C(O)C2(CCC3(CC2)OCCO3)NC1=O [Ex. I-1-a-27] | 100
26 | Cc1cc(Br)cc(C)c1C1=C(O)C2(CCC3(CC2)OCC(C)(C)CO3)NC1=O [Ex. I-1-a-33] | 100
27 | CCc1cc(Br)cc(C)c1C1=C(O)C2(CCC3(CC2)OCCO3)NC1=O [Ex. I-1-a-39] | 100
28 | COc1cc(C)cc(C)c1C1=C(O)C2(CCC3(CC2)OCCO3)NC1=O [Ex. I-1-a-43] | 100
29 | O=C1NC2(CCC3(CC2)OCCO3)C(O)=C1c1cc(-c2ccc(Cl)cc2)ccc1Cl [Ex. I-1-a-49] | 100
30 | Cc1ccc(C)c(C2=C(O)C3(CCC4(CC3)OCC(C)(C)CO4)NC2=O)c1 [Ex. I-1-a-61] | 100
31 | CC1(C)COC2(CCC3(CC2)NC(=O)C(c2cc(-c4ccc(Cl)cc4)ccc2Cl)=C3O)OC1 [Ex. I-1-a-64] | 100
32 | Cc1ccc(-c2ccc(Cl)cc2)cc1C1=C(O)C2(CCC3(CC2)OCC(C)(C)CO3)NC1=O [Ex. I-1-a-67] | 100
33 | Cc1ccc(C)c(C2=C(O)C3(CCC4(CC3)OCCO4)NC2=O)c1 [Ex. I-1-a-68] | 100
34 | CCOC(=O)OC1=C(c2cc(-c3ccc(Cl)cc3)ccc2C)C(=O)NC12CCC1(CC2)OCCCO1 [Ex. I-1-c-31] | 100
35 | CCOC(=O)OC1=C(c2c(C)cc(C)cc2OC)C(=O)NC12CCC1(CC2)OCCCO1 [Ex. I-1-c-34] | 100

system: not listed separately; assay: log P determination by HPLC/LC-MS retention times, calibration with alkan-2-ones; type: physicochemical; details: HPLC on reversed-phase column (C 18), 43° C., EEC Directive 79/831 Annex V.A8
Description: In the acidic range, the determination is carried out at pH 2.3 using 0.1% aqueous phosphoric acid and acetonitrile as mobile phases; linear gradient from 10% acetonitrile to 95% acetonitrile.
The determination by LC-MS in the acidic range is carried out at pH 2.7 using 0.1% aqueous formic acid and acetonitrile (comprises 0.1% formic acid) as mobile phases; linear gradient from 10% acetonitrile to 95% acetonitrile.
The determination by LC-MS in the neutral range is carried out at pH 7.8 using 0.001 molar aqueous ammonium bicarbonate solution and acetonitrile as mobile phases; linear gradient from 10% acetonitrile to 95% acetonitrile.
Calibration is carried out using unbranched alkan-2-ones (having 3 to 16 carbon atoms) with known log P values (determination of the log P values by the retention times using linear interpolation between two successive alkanones).

Row | Structure (SMILES) | log P
36 | COC(=O)C1(NC(=O)Cc2c(C)cc(C)cc2C)CCC2(CC1)OCCO2 [II-2] | log P 2.68
37 | COC(=O)C1(NC(=O)Cc2c(C)cc(Br)cc2C)CCC2(CC1)OCCO2 [II-7] | wax log P 2.81*
38 | CCc1cc(C)cc(C)c1CC(=O)NC1(C(=O)OC)CCC2(CC1)OCCO2 [II-8] | wax log P 2.95*
39 | CCc1cc(Br)cc(C)c1CC(=O)NC1(C(=O)OC)CCC2(CC1)OCCO2 [II-9] | wax log P 3.19*
40 | COC(=O)C1(NC(=O)Cc2cc(C)c(C)cc2C)CCC2(CC1)OCCCO2 [II-17] | log P 2.59*
41 | COC(=O)C1(NC(=O)Cc2c(C)cc(C)cc2OC)CCC2(CC1)OCCCO2 [II-24] | log P 2.49*
42 | COC(=O)C1(NC(=O)Cc2cc(-c3ccc(Cl)cc3)ccc2C)CCC2(CC1)OCCO2 [II-31] | log P 3.47*
43 | CCc1cc(C)cc(CC)c1CC(=O)NC1(C(=O)OC)CCC2(CC1)OCCO2 [II-32] | log P 3.28*
44 | CCc1cc(C)cc(Br)c1CC(=O)NC1(C(=O)OC)CCC2(CC1)OCCO2 [II-36] | log P 3.04*

same assay, conditions: HPLC/LC-MS retention times; printed in the Isomer column of the (I-1-a) table

Row | Structure (SMILES) | chromatographic logP
45 | CCCC1COC2(CCC3(CC2)NC(=O)C(c2c(C)cc(C)cc2C)=C3O)O1 (stereo not drawn) [Ex. I-1-a-8] | 2.73

same assay, conditions: printed in the Isomer column of the (I-1-a) table

Row | Structure (SMILES) | logP
46 | CCCC1COC2(CCC3(CC2)NC(=O)C(c2c(C)cc(C)cc2C)=C3O)O1 (single isomer, unassigned) [Ex. I-1-a-9] | 2.78

system: monocotyledonous and dicotyledonous weed and crop plants; assay: Example V 2: Herbicidal Post-Emergence Action; type: in vivo; details: greenhouse, 320 g of a.i./ha, about 3 weeks
Description: (§1) Seeds of monocotyledonous and dicotyledonous weed and crop plants are placed into sandy loam in wood fibre pots, covered with soil and cultivated in a greenhouse under good growth conditions. 2-3 weeks after sowing, the test plants are treated at the one-leaf stage. The test compounds, formulated as wettable powders (WP), are then, in various dosages with a water application rate of 600 l/ha (converted), with 0.2% of wetting agent added, sprayed onto the green parts of the plants. After the test plants have been kept in the greenhouse under optimum growth conditions for about 3 weeks, the effect of the preparations is rated visually in comparison to untreated controls (herbicidal effect in percent (%): 100% effect=the plants have died, 0% effect=like control plants).

Row | Structure (SMILES) | herbicidal effect, Amaranthus [%] | herbicidal effect, Stellaria [%]
47 | Cc1cc(Br)cc(C)c1C1=C(O)C2(CCC3(CC2)OCCO3)OC1=O [Ex. I-2-a-5] | 70 | 60

system: Lolium multiflorum; assay: Example V 2: Herbicidal Post-Emergence Action; type: in vivo; details: greenhouse, 320 g of a.i./ha, about 3 weeks
Description: as §1

Row | Structure (SMILES) | herbicidal effect, Lolium [%]
48 | Cc1cc(Br)cc(C)c1C1=C(O)C2(CCC3(CC2)OCCO3)OC1=O [Ex. I-2-a-5] | 100
49 | Cc1cc(Cl)cc(C)c1C1=C(OC(=O)C(C)C)C2(CCC3(CC2)OCC(CCl)O3)OC1=O (stereo not drawn) [Ex. I-2-b-3] | 100

system: Echinocloa crus-galli; assay: Example V 2: Herbicidal Post-Emergence Action; type: in vivo; details: greenhouse, 320 g of a.i./ha, about 3 weeks
Description: as §1

Row | Structure (SMILES) | herbicidal effect, Echinochloa [%]
50 | Cc1cc(Cl)cc(C)c1C1=C(OC(=O)C(C)C)C2(CCC3(CC2)OCC(CCl)O3)OC1=O (stereo not drawn) [Ex. I-2-b-3] | 80

system: Setaria viridis; assay: Example V 2: Herbicidal Post-Emergence Action; type: in vivo; details: greenhouse, 320 g of a.i./ha, about 3 weeks
Description: as §1

Row | Structure (SMILES) | herbicidal effect, Setaria [%]
51 | Cc1cc(Br)cc(C)c1C1=C(O)C2(CCC3(CC2)OCCO3)OC1=O [Ex. I-2-a-5] | 70
52 | Cc1cc(Cl)cc(C)c1C1=C(OC(=O)C(C)C)C2(CCC3(CC2)OCC(CCl)O3)OC1=O (stereo not drawn) [Ex. I-2-b-3] | 90

system: Test plants; assay: Example U: Pre-emergence Test; type: in vivo; details: crop plant; greenhouse, 250 g of a.i./ha, after three weeks; sub-table 3
Description: To produce a suitable preparation of active compound, 1 part by weight of active compound is mixed with the stated amount of solvent, the stated amount of emulsifier is added and the concentrate is diluted with water to the desired concentration.
Seeds of the test plants are sown in normal soil. After about 24 hours, the soil is sprayed with the preparation of active compound such that the particular amounts of active compound desired are applied per unit area. The concentration of the spray liquor is chosen such that the particular amounts of active compound desired are applied in 1000 l of water/ha.
After three weeks, the degree of damage to the plants is rated in % damage in comparison to the development of the untreated control.
The figures denote: • 0%=no effect (like untreated control) • 100%=total destruction

Row | Structure (SMILES) | damage, Sugar beet [%]
53 | Cc1cc(Cl)cc(C)c1C1=C(O)C2(CCC3(CC2)OCCCO3)NC1=O [Ex. I-1-a-14] | 0

same assay, conditions: greenhouse, 250 g of a.i./ha, after three weeks; sub-table 2

Row | Structure (SMILES) | damage, Alopecurus [%] | damage, Avena fatua [%] | damage, Echinochloa [%] | damage, Setaria [%] | damage, Sinapis [%]
54 | Cc1cc(Cl)cc(Cl)c1C1=C(O)C2(CCC3(CC2)OCCCO3)NC1=O [Ex. I-1-a-11] | 90 | 70 | 80 | 90 | –
55 | CCOC(=O)OC1=C(c2c(C)cc(Cl)cc2Cl)C(=O)NC12CCC1(CC2)OCCO1 [Ex. I-1-c-4] | 80 | – | 90 | 99 | 80

same assay, conditions: greenhouse, 250 g of a.i./ha, after three weeks; sub-table 3

Row | Structure (SMILES) | damage, Alopecurus [%] | damage, Avena fatua [%] | damage, Echinochloa [%] | damage, Setaria [%]
56 | Cc1cc(Cl)cc(C)c1C1=C(O)C2(CCC3(CC2)OCCCO3)NC1=O [Ex. I-1-a-14] | 95 | 80 | 80 | 90

same assay, conditions: greenhouse, 250 g of a.i./ha, after three weeks; sub-table 4

Row | Structure (SMILES) | damage, Alopecurus [%] | damage, Echinochloa [%] | damage, Setaria [%]
57 | Cc1cc(Cl)cc(Cl)c1C1=C(O)C2(CCC3(CC2)OCCCO3)NC1=O [Ex. I-1-a-11] | 80 | 80 | 100
